Measurements as given in ChEMBL document CHEMBL1136459, “New antibacterial tetrahydro-4(2H)-thiopyran and thiomorpholine S-oxide and S,S-dioxide phenyloxazolidinones” (Bioorg Med Chem Lett, 2003).
Converted amounts (≈) assume the structure as drawn.

Assays:
Haemophilus influenzae [1] = assay: In vitro antibacterial activity against Haemophilia influenzae strains ATCC 30063 and ATCC 31517; assay type: functional
Moraxella catarrhalis [2] = assay: In vitro antibacterial activity against Moraxella catarrhalis strains 30607 and 30603 (MC).; assay type: functional
[3] = system: Staphylococcus epidermidis; assay: In vitro antibacterial activity against Staphylococcus epidermidis strains UC12084, 30031, and CDC-CNS90 (SE); range is 16-32; assay type: functional
Staphylococcus aureus [4] = assay: In vitro antibacterial activity against Staphylococcus aureus strains UC12673, UC9213, ATCC 29213, and UC9271 (SA); range is 32-64; assay type: functional
Staphylococcus aureus [5] = assay: In vitro antibacterial activity against linezolid-resistant Staphylococcus aureus ATCC 29213 (LRSA).; assay type: functional
Enterococcus faecium = assay: In vitro antibacterial activity against vancomycin-resistant Enterococcus faecium UC12712 (VRE).
Streptococcus pneumoniae [6] = assay: In vitro antibacterial activity against Streptococcus pneumoniae strains ATCC 6305 and 31573 (SPN); range is 8-16
Haemophilus influenzae [7] = assay: In vitro antibacterial activity against Haemophilia influenzae strains 30063 and ATCC 31517 (HI); range is 16-64; assay type: functional
Moraxella catarrhalis [8] = assay: In vitro antibacterial activity against Moraxella catarrhalis strains 30607 and 30603 (MC); range is 16-32; assay type: functional
[9] = system: Staphylococcus epidermidis; assay: In vitro antibacterial activity against Staphylococcus epidermidis strains UC12084, 30031, and CDC-CNS90 (SE); range is 2-4; assay type: functional
Staphylococcus aureus [10] = assay: In vitro antibacterial activity against Staphylococcus aureus strains UC12673, UC9213, ATCC 29213, and UC9271 (SA); range is 4-16; assay type: functional
Moraxella catarrhalis [11] = assay: In vitro antibacterial activity against Moraxella catarrhalis strains 30607 and 30603 (MC); range is 32-64; assay type: functional
[12] = system: Staphylococcus epidermidis; assay: In vitro antibacterial activity against Staphylococcus epidermidis strains UC12084, 30031, and CDC-CNS90 (SE); assay type: functional
Staphylococcus aureus [13] = assay: In vitro antibacterial activity against Staphylococcus aureus strains UC12673, UC9213, ATCC 29213, and UC9271 (SA); range is 8-32; assay type: functional
[14] = In vivo Volume distribution (Vss) was determined after intravenous administration of compound (9.13+/-0.85 mg/kg) in male Sprague-Dawley rat; assay type: ADME, organism-based; conditions: read-out: Vss
Rattus norvegicus [15] = assay: In vivo Volume distribution (Vss) was determined after peroral administration of compound (158.5+/-2 mg/kg) in male Sprague-Dawley rat; assay type: ADME, organism-based; conditions: po
Rattus norvegicus [16] = assay: In vivo Volume distribution (Vss) was determined after peroral administration of compound (76.4+/-2.6 mg/kg) in male Sprague-Dawley rat; assay type: ADME, organism-based; conditions: po
Rattus norvegicus [17] = assay: In vivo Tmax was determined after peroral administration of compound (76.4+/-2.6 mg/kg) in male Sprague-Dawley rat; assay type: ADME, organism-based; conditions: po
Rattus norvegicus [18] = assay: In vivo Clearance (Cl) was determined after intravenous administration of compound (9.13+/-0.85 mg/kg) in male Sprague-Dawley rat; assay type: ADME, organism-based
Rattus norvegicus [19] = assay: In vivo Cmax was determined after peroral administration of compound (76.4+/-2.6 mg/kg) in male Sprague-Dawley rat; assay type: ADME, organism-based; set-up: route oral; conditions: po
[20] = In vivo Oral bioavailability (F)was determined after peroral administration of compound (158.5+/-2 mg/kg) in male Sprague-Dawley rat; assay type: ADME, organism-based
[21] = In vivo Oral bioavailability (F)was determined after peroral administration of compound (19.01+/-0.31 mg/kg) in male Sprague-Dawley rat; assay type: ADME, organism-based
[22] = In vivo Oral bioavailability (F)was determined after peroral administration of compound (76.4+/-2.6 mg/kg) in male Sprague-Dawley rat; assay type: ADME, organism-based
Rattus norvegicus [23] = assay: In vivo Tmax was determined after intravenous administration of compound (9.13+/-0.85 mg/kg) in male Sprague-Dawley rat; assay type: ADME, organism-based
[24] = In vivo Tmax was determined after peroral administration of compound (158.5+/-2 mg/kg) in male Sprague-Dawley rat; assay type: ADME, organism-based; conditions: po
Rattus norvegicus [25] = assay: In vivo Tmax was determined after peroral administration of compound (19.01+/-0.31 mg/kg) in male Sprague-Dawley rat; assay type: ADME, organism-based; conditions: po
Rattus norvegicus [26] = assay: In vivo Area under curve (AUC) was determined after intravenous administration of compound (9.13+/-0.85 mg/kg) in male Sprague-Dawley rat; assay type: ADME, organism-based
Rattus norvegicus [27] = assay: In vivo Area under curve (AUC) was determined after peroral administration of compound (19.01+/-0.31 mg/kg) in male Sprague-Dawley rat; assay type: ADME, organism-based; conditions: po
Rattus norvegicus [28] = assay: In vivo t1/2 was determined after intravenous administration of compound (9.13+/-0.85 mg/kg) in male Sprague-Dawley rat; assay type: ADME, organism-based
[29] = In vivo t1/2 was determined after peroral administration of compound (158.5+/-2 mg/kg) in male Sprague-Dawley rat; assay type: ADME, organism-based; conditions: po
Rattus norvegicus [30] = assay: In vivo t1/2 was determined after peroral administration of compound (19.01+/-0.31 mg/kg) in male Sprague-Dawley rat; assay type: ADME, organism-based; conditions: po
Rattus norvegicus [31] = assay: In vivo Cmax was determined after intravenous administration of compound (9.13+/-0.85 mg/kg) in male Sprague-Dawley rat; assay type: ADME, organism-based; set-up: route intravenous
[32] = In vivo Cmax was determined after peroral administration of compound (158.5+/-2 mg/kg) in male Sprague-Dawley rat; assay type: ADME, organism-based; set-up: route oral; conditions: po
Rattus norvegicus [33] = assay: In vivo Cmax was determined after peroral administration of compound (19.01+/-0.31 mg/kg) in male Sprague-Dawley rat; assay type: ADME, organism-based; set-up: route oral; conditions: po
Rattus norvegicus [34] = assay: In vivo Area under curve (AUC) was determined after peroral administration of compound (76.4+/-2.6 mg/kg) in male Sprague-Dawley rat; assay type: ADME, organism-based; conditions: po
Haemophilus influenzae [35] = assay: In vitro antibacterial activity against Haemophilia influenzae strains 30063 and ATCC 31517 (HI); range is 4-8; assay type: functional
Moraxella catarrhalis [36] = assay: In vitro antibacterial activity against Moraxella catarrhalis strains 30607 and 30603 (MC); range is 4-8; assay type: functional
Mus musculus = assay: In vivo Efficacy of compound after peroral administration in mouse; assay type: functional; conditions: po
[37] = system: Staphylococcus epidermidis; assay: In vitro antibacterial activity against Staphylococcus epidermidis strains UC12084, 30031, and CDC-CNS90 (SE); range is 1-24; assay type: functional
Staphylococcus aureus [38] = assay: In vitro antibacterial activity against Staphylococcus aureus strains UC12673, UC9213, ATCC 29213, and UC9271 (SA); range is 2-4; assay type: functional
Rattus norvegicus [39] = assay: In vivo t1/2 was determined after peroral administration of compound (76.4+/-2.6 mg/kg) in male Sprague-Dawley rat; assay type: ADME, organism-based; conditions: po
Rattus norvegicus [40] = assay: In vivo Area under curve (AUC) was determined after oral administration of compound (158.5+/-2 mg/kg) in male Sprague-Dawley rat
Moraxella catarrhalis [41] = assay: In vitro antibacterial activity against Moraxella catarrhalis strains 30607 and 30603 (MC); range is 2-4; assay type: functional
Streptococcus pneumoniae [42] = assay: In vitro antibacterial activity against Streptococcus pneumoniae strains ATCC6305 and 31573 (SPN).

O=C(NC[C@H]1CN(c2ccc(N3CC[S+]([O-])CC3)c(F)c2)C(=O)O1)c1ccccc1
MIC (Haemophilus influenzae [1]): > 64 µg/mL
MIC (Moraxella catarrhalis [2]): > 64 µg/mL
MIC [3]: 16 µg/mL (≈ 37.1 µM)
MIC (Staphylococcus aureus [4]): 32 µg/mL (≈ 74.2 µM)
MIC (Staphylococcus aureus [5]): > 64 µg/mL
MIC (Enterococcus faecium): 32 µg/mL (≈ 74.2 µM)
MIC (Streptococcus pneumoniae [6]): 8 µg/mL (≈ 18.5 µM)

O=C(/C=C/c1cccnc1)NC[C@H]1CN(c2ccc(C3CCS(=O)(=O)CC3)c(F)c2)C(=O)O1
MIC (Haemophilus influenzae [7]): 16 µg/mL (≈ 33.8 µM)
MIC (Moraxella catarrhalis [8]): 16 µg/mL (≈ 33.8 µM)
MIC [9]: 2 µg/mL (≈ 4.22 µM)
MIC (Staphylococcus aureus [10]): 4 µg/mL (≈ 8.45 µM)
MIC (Staphylococcus aureus [5]): 32 µg/mL (≈ 67.6 µM)
MIC (Enterococcus faecium): 8 µg/mL (≈ 16.9 µM)

CC(=O)Oc1ccc(C(=O)NC[C@H]2CN(c3ccc(C4CC[S+]([O-])CC4)c(F)c3)C(=O)O2)cc1 (stereo partly specified)
MIC (Haemophilus influenzae [1]): 64 µg/mL (≈ 131 µM)
MIC (Moraxella catarrhalis [11]): 32 µg/mL (≈ 65.5 µM)
MIC [12]: 4 µg/mL (≈ 8.19 µM)
MIC (Staphylococcus aureus [13]): 8 µg/mL (≈ 16.4 µM)
MIC (Staphylococcus aureus [5]): 64 µg/mL (≈ 131 µM)
MIC (Enterococcus faecium): 0.06 µg/mL (≈ 0.123 µM)

O=C(NC[C@H]1CN(c2ccc(C3CC[S+]([O-])CC3)c(F)c2)C(=O)O1)C(F)F (stereo partly specified)
Vd [14]: 1.78 L/kg
Vss (Rattus norvegicus [15]): 29.84 L/kg
Vss (Rattus norvegicus [16]): 29.84 L/kg
T max (Rattus norvegicus [17]): 0.5 h
Cl (Rattus norvegicus [18]): 37.25 mL/min/kg
Cmax (Rattus norvegicus [19]): 8600 ng/mL
bioavailability [20]: 85.7%
bioavailability [21]: 77.1%
bioavailability [22]: 95.1%
T max (Rattus norvegicus [23]): 1.98 min
Tmax [24]: 0.38 h
T max (Rattus norvegicus [25]): 0.38 h
AUC (Rattus norvegicus [26]): 4090 ng·h/mL
AUC (Rattus norvegicus [27]): 6570 ng·h/mL
T1/2 (Rattus norvegicus [28]): 2.9 h
half-life [29]: 7.93 h
T1/2 (Rattus norvegicus [30]): 3.6 h
Cmax (Rattus norvegicus [31]): 15600 ng/mL
Cmax [32]: 9070 ng/mL
Cmax (Rattus norvegicus [33]): 3470 ng/mL
AUC (Rattus norvegicus [34]): 32400 ng·h/mL
MIC (Haemophilus influenzae [35]): 4 µg/mL (≈ 9.89 µM)
MIC (Moraxella catarrhalis [36]): 4 µg/mL (≈ 9.89 µM)
ED50 (Mus musculus): 6.52 mg/kg
MIC [37]: 1 µg/mL (≈ 2.47 µM)
MIC (Staphylococcus aureus [38]): 2 µg/mL (≈ 4.95 µM)
T1/2 (Rattus norvegicus [39]): 4.25 h
MIC (Staphylococcus aureus [5]): 16 µg/mL (≈ 39.6 µM)
MIC (Enterococcus faecium): 2 µg/mL (≈ 4.95 µM)
AUC (Rattus norvegicus [40]): 60800 ng·h/mL

CC(=O)NC[C@H]1CN(c2ccc(C3CCS(=O)(=O)CC3)c(F)c2)C(=O)O1
MIC (Haemophilus influenzae [35]): 4 µg/mL (≈ 10.4 µM)
MIC (Moraxella catarrhalis [41]): 2 µg/mL (≈ 5.2 µM)
MIC [12]: 0.5 µg/mL (≈ 1.3 µM)
MIC (Staphylococcus aureus [38]): 2 µg/mL (≈ 5.2 µM)
MIC (Staphylococcus aureus [5]): 32 µg/mL (≈ 83.2 µM)
MIC (Enterococcus faecium): 2 µg/mL (≈ 5.2 µM)
MIC (Streptococcus pneumoniae [42]): 0.5 µg/mL (≈ 1.3 µM)
